Our source for the IC50 values is patent US20230339937A1, “CONDENSED RING COMPOUNDS THAT INHIBIT H-PGDS” (SATO PHARMACEUTICAL CO., LTD., priority 2020, published 2023).

The structures appear in SMILES notation. pIC50: −log10 of the molar value.

This assay deals with T1, Recombinant human H-PGDS (Homo sapiens, UniProt O60760).
T1 construct: made in house; host or cells: E. coli
The assay is described as follows: H-PGDS inhibitory activity (prostaglandin D2 production from prostaglandin H2, measured by LC-MS/MS). In kind it is biochemical. To be noted: recombinant human H-PGDS 1.0 nM expressed in E. coli; prostaglandin H2 25 μM; preincubated 15 minutes on ice, reacted on ice for 1 minute; concentration that inhibits prostaglandin D2 production by 50%. The method, then:
The H-PGDS inhibitory activity of each Example compound was measured according to the method reported by LIN, Jiang. et al. (NO 2007/041634).
Recombinant human H-PGDS (final concentration: 1.0 nM) expressed in E. coli was mixed in an assay buffer containing 20 mM Tris-HCl (pH 8.0), 2 mM magnesium chloride, 2 mM reduced glutathione, and 0.5 mg/mL γ-globulin, and 150 μL of the mixture was dispensed into a 8-strip PCR tube (BM Equipment Co., Ltd.). Test compounds (Example compounds) (16.5 μL) at various concentrations dissolved in DMSO were added and the mixture was preincubated for 15 minutes on ice.
Prostaglandin H2 (final concentration: 25 μM) (Cayman Chemical) was dispensed into another 8-strip PCR tube, and the solvent was dried and solidified using a vacuum concentrator (Thermo Fisher Scientific). To the dried and solidified prostaglandin H2 was added 50 μL of the assay buffer containing H-PGDS and each test compound after the preincubation, and the mixture was reacted on ice for 1 minute. 45 μL of this mixture was added to 45 μL of a stop solution (50 mM aqueous citric acid solution containing iron chloride at a final concentration of 4 mg/mL) to stop the reaction. Then, the reaction solution was deproteinized, added to a 96 square deep well plate (SHONANMARUHACHI STEC Co., Ltd.), and the prostaglandin D2 concentration in the reaction solution was measured by LC-MS/MS. ACQUITY (registered trademark) TQD (Waters) was used as a measuring instrument.
Prostaglandin Da production activity (f) in the group with each test compound when a value obtained by subtracting the amount of production of prostaglandin D2 in the group without enzyme, which is non-specific production of prostaglandin D2, from the amount of production of prostaglandin Da in the group without test compound (DMSO-addition group) in each 8-strip PCR tube is 100% was calculated.

T1 sequence (O60760 whole entry): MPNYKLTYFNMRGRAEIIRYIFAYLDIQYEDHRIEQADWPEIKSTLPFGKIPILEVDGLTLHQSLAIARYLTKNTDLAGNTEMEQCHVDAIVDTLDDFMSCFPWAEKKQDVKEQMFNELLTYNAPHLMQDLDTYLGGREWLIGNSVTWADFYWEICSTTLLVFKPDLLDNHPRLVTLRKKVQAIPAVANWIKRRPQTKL

With `O=C(N[C@@H]1C[C@H]2C[C@@H](O)C[C@H]2C1)c1ccc(-c2nccc3occc23)cc1` [Example 282, 4-(furo[3,2-c]pyridin-4-yl)-N-[(2r,3aR,5r,6aS)-5-hydroxyoctahydropentalen-2-yl]benzamide], the pIC50 was 8.89.

Consider `CNC(=O)c1ccc(-c2nccc3[nH]ccc23)cc1` [Example 1, N-methyl-4-(1H-pyrrolo[3,2-c]pyridin-4-yl)benzamide], for which the pIC50 was 8.57.

For the compound `NS(=O)(=O)c1cccc(NC(=O)c2ccc(-c3nccc4occc34)cc2)c1` [Example 105, 4-(furo[3,2-c]pyridin-4-yl)-N-(3-sulfamoylphenyl) benzamide], the pIC50 was 8.64.

As to `CC(O)[C@H]1CC[C@H](NC(=O)c2ccc(-c3nccc4occc34)cc2)CC1` (stereo partly drawn) [Example 121, 4-(furo[3,2-c]pyridin-4-yl)-N-[trans-4-(1-hydroxyethyl)cyclohexyl]benzamide], the pIC50 was 8.89.

With `N#Cc1cccc(CNC(=O)c2ccc(-c3nccc4occc34)cc2)c1` [Example 73, N-(3-cyanobenzyl)-4-(furo[3,2-c]pyridin-4-yl)benzamide], the pIC50 is 8.32.

Take `O=C(NC1CCN(c2ncccn2)CC1)c1ccc(-c2nccc3[nH]ccc23)cc1` [Example 336, N-[1-(pyrimidin-2-yl)piperidin-4-yl]-4-(1H-pyrrolo[3,2-c]pyridin-4-yl)benzamide]: the pIC50 was 9.03.

As for `O=C(N[C@H]1CCN(c2cccc(F)n2)C1)c1ccc(-c2nccc3occc23)cc1` [Example 226, (S)—N-[1-(6-fluoropyridin-2-yl)pyrrolidin-3-yl]-4-(furo[3,2-c]pyridin-4-yl)benzamide], the pIC50 is 8.55.

Turning to `CC(C)(O)[C@H]1CC[C@H](NC(=O)c2ccc(-c3nccc4[nH]ccc34)cc2)CC1` [Example 2, N-[trans-4-(2-hydroxypropan-2-yl)cyclohexyl]-4-(1H-pyrrolo[3,2-c]pyridin-4-yl)benzamide], the pIC50 is 9.12.

Consider `CS(=O)(=O)c1ccc(NC(=O)c2ccc(-c3nccc4occc34)cc2)cc1` [Example 109, 4-(furo[3,2-c]pyridin-4-yl)-N-[4-(methylsulfonyl)phenyl]benzamide], for which the pIC50 was 8.54.

On to `CC(C)(O)[C@H]1CC[C@H](NC(=O)c2ccc(-c3nccc4occc34)c(C#N)c2)CC1` [Example 133, 3-cyano-4-(furo[3,2-c]pyridin-4-yl)-N-[trans-4-(2-hydroxypropan-2-yl)cyclohexyl]benzamide], for which the pIC50 is 7.80.

For the compound `O=C(NC1CCN(C(=O)C2CC2)CC1)c1ccc(-c2nccc3occc23)cc1` [Example 235, N-[1-(cyclopropanecarbonyl)piperidin-4-yl]-4-(furo[3,2-c]pyridin-4-yl)benzamide], the pIC50 was 8.92.

For the compound `CC(O)CNC(=O)c1ccc(-c2nccc3[nH]ccc23)cc1` (centres unmarked) [Example 31, N-(2-hydroxypropyl)-4-(1H-pyrrolo[3,2-c]pyridin-4-yl)benzamide], the pIC50 is 8.82.

Turning to `CC1(NC(=O)c2ccc(-c3nccc4occc34)cc2)CCC(O)CC1` (centres unmarked) [Example 276, 4-(furo[3,2-c]pyridin-4-yl)-N-(4-hydroxy-1-methylcyclohexyl)benzamide], the pIC50 is 7.92.

Take `O=C(Nc1cccnc1)c1ccc(-c2nccc3occc23)cc1` [Example 103, 4-(furo[3,2-c]pyridin-4-yl)-N-(pyridin-3-yl)benzamide]: the negative-log IC50 (pIC50) was 8.68.

For the compound `O=C(NCC1CCOCC1)c1ccc(-c2nccc3[nH]ccc23)cc1` [Example 22, 4-(1H-pyrrolo[3,2-c]pyridin-4-yl)-N-[(tetrahydro-2H-pyran-4-yl)methyl] benzamide], the pIC50 is 9.07.

Turning to `CCOCCNC(=O)c1ccc(-c2nccc3[nH]ccc23)cc1` [Example 27, N-(2-ethoxyethyl)-4-(1H-pyrrolo[3,2-c]pyridin-4-yl)benzamide], the pIC50 is 9.01.

Turning to `O=C(N[C@H]1CCN(c2ccnc(Cl)c2)C1)c1ccc(-c2nccc3occc23)cc1` [Example 195, (S)-N-[1-(2-chloropyridin-4-yl)pyrrolidin-3-yl]-4-(furo[3,2-c]pyridin-4-yl)benzamide], the pIC50 was 8.77.
